Results taken from US20120101136A1, “5-MEMBERED HETEROARYL DERIVATIVES USED AS SPHINGOSINE 1- PHOSPHATE RECEPTOR AGONISTS” (GLAXO GROUP LIMITED, priority 2009, published 2012).

These compounds were tested against T1, S1P1 receptor (human Endothelial Differentiation Gene 1 (EDG1)) (Homo sapiens, UniProt P21453) (assay: S1P1 Tango Assay - 384 Well Format (EDG1-bla/U2OS cells)). Conditions: agonist, beta-lactamase reporter.
T1 construct: TEV protease site; Gal4-VP16 transcription factor; expressed in transfected cells; host or cells: Tango GPCR-bla U2OS parental cell line (EDG1-bla/U2OS)
T1 sequence (P21453 whole entry, the tested form may be a part): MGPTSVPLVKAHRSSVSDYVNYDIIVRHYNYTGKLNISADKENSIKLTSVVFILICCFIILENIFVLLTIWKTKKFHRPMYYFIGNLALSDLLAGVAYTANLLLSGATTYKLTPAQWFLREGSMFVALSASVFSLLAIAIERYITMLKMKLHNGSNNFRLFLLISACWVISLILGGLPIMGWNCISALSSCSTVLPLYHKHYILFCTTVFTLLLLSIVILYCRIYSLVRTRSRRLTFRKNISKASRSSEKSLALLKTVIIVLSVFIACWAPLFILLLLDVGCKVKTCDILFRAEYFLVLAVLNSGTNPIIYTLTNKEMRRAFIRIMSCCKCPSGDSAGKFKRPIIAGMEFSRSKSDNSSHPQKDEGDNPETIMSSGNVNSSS
Format: cell-based
Method: Recombinant EDG1-bla/U2OS cells (contain the human Endothelial Differentiation Gene 1 (EDG1) linked to a TEV protease site and a Gal4-VP16 transcription factor stably integrated into the Tango GPCR-bla U2OS parental cell line) were harvested from growth medium and passaged into assay medium (Invitrogen Freestyle Expression Medium). The cells were starved for 24 hours at 37° C., 5% CO2, harvested and resuspended in assay medium at a density of ˜200,000 cells/ml.
All test compounds were dissolved in DMSO at a concentration of 10 mM and were prepared in 100% DMSO to provide 10 point dose response curves. Test compounds prepared by Bravo (Velocity 11) were added to wells in columns 2-11 and 13-22; DMSO was added to wells in columns 12 and 23 as unstimulated controls and assay medium was added to wells in columns 1 and 24 as cell-free controls. An S1P1 agonist was added to wells in row 2, columns 2-11 as stimulated controls and test compounds were added to wells in row 2, columns 13-22 and rows 3-15, columns 2-11/13-22 (row 1 and 16 were empty and not used). Compounds in solution were added to the assay plate (Greiner 781090) using an Echo (Labcyte) dose-response program (50 nl/well). The unstimulated and cell-free controls were loaded with 50 nl/well pure DMSO to ensure that the DMSO concentration was constant across the plate for all assays.
50 μl of the cell suspension was added to each well in columns 2-23 of the plate (˜10,000 cells per well). 50 μl of assay medium was added to each well in the cell-free controls (columns 1 and 24). The cells were incubated overnight at 37° C./5% CO2.
10 μl of 6× substrate mixture (LiveBLAzer™-FRET B/G substrate (CCF4-AM) Cat # K1096 from Invitrogen, Inc.) was added to each well using Bravo and the plates incubated at room temperature for 2 h in the dark. The plate was finally read on EnVision using one excitation channel (409 nm) and two emission channels (460 nm and 530 nm).
The blue/green emission ratio (460 nm/530 nm) was calculated for each well, by dividing the background-subtracted Blue emission values by the background-subtracted Green emission values. The dose response curve is based on sigmoidal dose-response model. All ratio data was normalized based upon the maximum emission ratio of positive control and minimum emission ratio of negative control (DMSO) on each plate. The intrinsic activity (IA) of each compound would be the normalized percentage of its maximum response after curve fitting.

EC50	SMILES
≤ 1 nM	Cc1cc(OCC(=O)O)ccc1-c1noc(-c2ccc(OC(C)C)c(Cl)c2)n1 [Example 3, {[4-(5-{3-Chloro-4-[(1-methylethyl)oxy]phenyl}-1,2,4-oxadiazol-3-yl)-3-methylphenyl]oxy}acetic acid]
≤ 10 nM	CCCNCCCCOc1ccc(-c2noc(-c3ccc(OC(C)C)c(C#N)c3)n2)c(Cl)c1 [Example 19, 5-[3-(2-chloro-4-{[4-(propylamino)butyl]oxy}phenyl)-1,2,4-oxadiazol-5-yl]-2-[(1-methylethyl)oxy]benzonitrile]
≤ 1 nM	CNCCCCOc1ccc(-c2noc(-c3ccc(OC(C)C)c(C#N)c3)n2)c(Cl)c1 [Example 21, 5-[3-(2-chloro-4-{[4-(methylamino)butyl]oxy}phenyl)-1,2,4-oxadiazol-5-yl]-2-[(1-methylethyl)oxy]benzonitrile]
≤ 1 nM	Cc1cc(OCCCCC(=O)O)ccc1-c1noc(-c2ccc(OC(C)C)c(Cl)c2)n1 [Example 2, 5-{[4-(5-{3-Chloro-4-[(1-methylethyl)oxy]phenyl}-1,2,4-oxadiazol-3-yl)-3-methylphenyl]oxy}pentanoic acid]
≤ 0.1 nM	CC(C)Oc1ccc(-c2nc(-c3ccc(OCCCC(=O)O)cc3F)no2)cc1C#N [Example 22, 4-{[4-(5-{3-cyano-4-[(1-methylethyl)oxy]phenyl}-1,2,4-oxadiazol-3-yl)-3-fluorophenyl]oxy}butanoic acid]
≤ 1000 nM	CCc1cc(OCCCNC)ccc1-c1nnc(-c2ccc(OC(C)C)c(C#N)c2)s1 [Example 13, 5-[5-(2-ethyl-4-{[3-(methylamino)propyl]oxy}phenyl)-1,3,4-thiadiazol-2-yl]-2-[(1-methylethyl)oxy]benzonitrile]
≤ 1 nM	COc1cc(OCCCCC(=O)O)ccc1-c1noc(-c2ccc(OC(C)C)c(C#N)c2)n1 [Example 12, 5-{[4-(5-{3-Cyano-4-[(1-methylethyl)oxy]phenyl}-1,2,4-oxadiazol-3-yl)-3-(methyloxy)phenyl]oxy}pentanoic acid]
≤ 10 nM	CNCCOc1ccc(-c2noc(-c3ccc(OC(C)C)c(Cl)c3)n2)c(C)c1 [Example 5, 2-{[4-(5-{3-Chloro-4-[(1-methylethyl)oxy]phenyl}-1,2,4-oxadiazol-3-yl)-3-methylphenyl]oxy}-N-methylethanamine]
≤ 10 nM	CCc1cc(OCCCC(=O)O)ccc1-c1nsc(-c2ccc(OC(C)C)c(C#N)c2)n1 [Example 42, 4-{[4-(5-{3-cyano-4-[(1-methylethyl)oxy]phenyl}-1,2,4-thiadiazol-3-yl)-3-ethylphenyl]oxy}butanoic acid]
≤ 1 nM	CCc1cc(OCCCNC)ccc1-c1noc(-c2ccc(OC(C)C)c(C#N)c2)n1 [Example 39, 5-[3-(2-ethyl-4-{[3-(methylamino)propyl]oxy}phenyl)-1,2,4-oxadiazol-5-yl]-2-[(1-methylethyl)oxy]benzonitrile]
≤ 10 nM	CNCCCOc1ccc(-c2noc(-c3ccc(OC(C)C)c(Cl)c3)n2)c(C)c1 [Example 40, (3-{[4-(5-{3-chloro-4-[(1-methylethyl)oxy]phenyl}-1,2,4-oxadiazol-3-yl)-3-methylphenyl]oxy}propyl)methylamine]
≤ 1 nM	CCc1cc(OCCCC(=O)O)ccc1-c1nnc(-c2ccc(OC(C)C)c(C#N)c2)s1 [Example 16, 4-{[4-(5-{3-cyano-4-[(1-methylethyl)oxy]phenyl}-1,3,4-thiadiazol-2-yl)-3-ethylphenyl]oxy}butanoic acid]
≤ 10 nM	CCc1cc(OCCCCNC)ccc1-c1noc(-c2ccc(OC(C)C)c(C#N)c2)n1 [Example 38, 5-[3-(2-ethyl-4-{[4-(methylamino)butyl]oxy}phenyl)-1,2,4-oxadiazol-5-yl]-2-[(1-methylethyl)oxy]benzonitrile]
≤ 100 nM	CCc1cc(OCCCCNC)ccc1-c1noc(-c2ccc(OC(C)C)c(Cl)c2)n1 [Example 34, (4-{[4-(5-{3-chloro-4-[(1-methylethyl)oxy]phenyl}-1,2,4-oxadiazol-3-yl)-3-ethylphenyl]oxy}butyl)methylamine]
≤ 1 nM	CCc1cc(OCCCC(=O)O)ccc1-c1cnc(-c2ccc(OC(C)C)c(C#N)c2)s1 [Example 43, 4-{[4-(2-{3-cyano-4-[(1-methylethyl)oxy]phenyl}-1,3-thiazol-5-yl)-3-ethylphenyl]oxy}butanoic acid]
≤ 10 nM	CC(C)Oc1ccc(-c2nc(-c3ccc(OCC(=O)O)cc3Cl)no2)cc1C#N [Example 9, {[3-Chloro-4-(5-{3-cyano-4-[(1-methylethyl)oxy]phenyl}-1,2,4-oxadiazol-3-yl)phenyl]oxy}acetic acid]
≤ 1 nM	CC(C)Oc1ccc(-c2nc(-c3ccc(OCCCC(=O)O)cc3)no2)cc1C#N [Example 24, 4-{[4-(5-{3-cyano-4-[(1-methylethyl)oxy]phenyl}-1,2,4-oxadiazol-3-yl)phenyl]oxy}butanoic acid]
≤ 0.1 nM	Cc1cc(OCCCC(=O)O)ccc1-c1noc(-c2ccc(OC(C)C)c(Cl)c2)n1 [Example 1, 4-{[4-(5-{3-Chloro-4-[(1-methylethyl)oxy]phenyl}-1,2,4-oxadiazol-3-yl)-3-methylphenyl]oxy}butanoic acid]
≤ 1 nM	CCc1cc(OCC(=O)O)ccc1-c1noc(-c2ccc(OC(C)C)c(C#N)c2)n1 [Example 27, {[4-(5-{3-cyano-4-[(1-methylethyl)oxy]phenyl}-1,2,4-oxadiazol-3-yl)-3-ethylphenyl]oxy}acetic acid]
≤ 10 nM	CC(C)Oc1ccc(-c2nc(-c3ccc(OCCCCN(C)C)cc3Cl)no2)cc1C#N [Example 17, 5-[3-(2-chloro-4-{[4-(dimethylamino)butyl]oxy}phenyl)-1,2,4-oxadiazol-5-yl]-2-[(1-methylethyl)oxy]benzonitrile]
≤ 0.1 nM	CCc1cc(OCCCCC(=O)O)ccc1-c1noc(-c2ccc(OC(C)C)c(C#N)c2)n1 [Example 31, 5-{[4-(5-{3-cyano-4-[(1-methylethyl)oxy]phenyl}-1,2,4-oxadiazol-3-yl)-3-ethylphenyl]oxy}pentanoic acid]
≤ 1 nM	CCc1cc(OCCCC(=O)O)ccc1-c1nnc(-c2ccc(OC(C)C)c(C#N)c2)o1 [Example 15, 4-{[4-(5-{3-cyano-4-[(1-methylethyl)oxy]phenyl}-1,3,4-oxadiazol-2-yl)-3-ethylphenyl]oxy}butanoic acid]
≤ 100 nM	CC(C)Oc1ccc(-c2nc(-c3ccc(OCC(=O)O)cc3F)no2)cc1C#N [Example 23, {[4-(5-{3-cyano-4-[(1-methylethyl)oxy]phenyl}-1,2,4-oxadiazol-3-yl)-3-fluorophenyl]oxy}acetic acid]
≤ 1 nM	CCc1cc(OCC(=O)O)ccc1-c1noc(-c2ccc(OC(C)C)c(Cl)c2)n1 [Example 28, {[4-(5-{3-chloro-4-[(1-methylethyl)oxy]phenyl}-1,2,4-oxadiazol-3-yl)-3-ethylphenyl]oxy}acetic acid]
≤ 1 nM	CNCCCOc1ccc(-c2noc(-c3ccc(OC(C)C)c(C#N)c3)n2)c(Cl)c1 [Example 37, 5-[3-(2-chloro-4-{[3-(methylamino)propyl]oxy}phenyl)-1,2,4-oxadiazol-5-yl]-2-[(1-methylethyl)oxy]benzonitrile]
≤ 100 nM	CCc1cc(OCCCNC)ccc1-c1nnc(-c2ccc(OC(C)C)c(C#N)c2)o1 [Example 14, 5-[5-(2-ethyl-4-{[3-(methylamino)propyl]oxy}phenyl)-1,3,4-oxadiazol-2-yl]-2-[(1-methylethyl)oxy]benzonitrile]
≤ 10 nM	CC(C)NCCCCOc1ccc(-c2noc(-c3ccc(OC(C)C)c(C#N)c3)n2)c(Cl)c1 [Example 18, 5-{3-[2-chloro-4-({4-[(1-methylethyl)amino]butyl}oxy)phenyl]-1,2,4-oxadiazol-5-yl}-2-[(1-methylethyl)oxy]benzonitrile]
≤ 1 nM	CC(C)Oc1ccc(-c2nc(-c3ccc(OCCCCC(=O)O)cc3F)no2)cc1C#N [Example 11, 5-{[4-(5-{3-Cyano-4-[(1-methylethyl)oxy]phenyl}-1,2,4-oxadiazol-3-yl)-3-fluorophenyl]oxy}pentanoic acid]
≤ 10 nM	CCNCCCCOc1ccc(-c2noc(-c3ccc(OC(C)C)c(C#N)c3)n2)c(Cl)c1 [Example 20, 5-[3-(2-chloro-4-{[4-(ethylamino)butyl]oxy}phenyl)-1,2,4-oxadiazol-5-yl]-2-[(1-methylethyl)oxy]benzonitrile]
≤ 0.1 nM	CCc1cc(OCCCC(=O)O)ccc1-c1noc(-c2ccc(OC(C)C)c(Cl)c2)n1 [Example 30, 4-{[4-(5-{3-chloro-4-[(1-methylethyl)oxy]phenyl}-1,2,4-oxadiazol-3-yl)-3-ethylphenyl]oxy}butanoic acid]
